For eight compounds, inhibition, melting point and IC50 results are on record in PMC6522981, “Structure-based design generated novel hydroxamic acid based preferential HDAC6 lead inhibitor with on-target cytotoxic activity against primary choroid plexus carcinoma” (Journal of Enzyme Inhibition and Medicinal Chemistry, 2019).

A word on the inhibition: it is how much of the control response was suppressed. For orientation: melting point means the temperature, or range, at which the solid turns liquid. For orientation: IC50 means the concentration at which inhibition is half-maximal.

For one data set, the target named is T1, human HDAC2 (Homo sapiens, UniProt Q92769).
T1 construct: purchased BPS Bioscience 50002
T1 sequence (Q92769 whole entry): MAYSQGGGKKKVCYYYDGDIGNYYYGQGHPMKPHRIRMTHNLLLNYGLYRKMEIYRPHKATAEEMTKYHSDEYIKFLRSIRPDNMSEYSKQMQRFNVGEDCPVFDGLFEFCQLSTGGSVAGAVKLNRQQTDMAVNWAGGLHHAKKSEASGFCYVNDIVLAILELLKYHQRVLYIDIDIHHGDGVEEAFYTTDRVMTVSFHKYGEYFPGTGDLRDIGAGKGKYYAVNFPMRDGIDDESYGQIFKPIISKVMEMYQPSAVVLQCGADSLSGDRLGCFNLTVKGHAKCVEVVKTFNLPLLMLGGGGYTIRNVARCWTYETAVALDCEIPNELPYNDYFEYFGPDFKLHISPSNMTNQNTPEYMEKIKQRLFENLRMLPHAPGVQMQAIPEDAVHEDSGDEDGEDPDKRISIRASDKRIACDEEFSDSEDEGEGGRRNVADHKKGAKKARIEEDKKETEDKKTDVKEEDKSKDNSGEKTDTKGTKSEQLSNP
Put plainly: HDAC2 inhibitor enzymatic assay, % inhibition at fixed concentration. It counts as biochemical. The conditions noted are these: read-out: %inhibition of HDACs at 10µM of test compound HDAC2; 10 µM compound; mean of two replicates.

For the next data set, the target named is T2, human HDAC8 (Homo sapiens, UniProt Q9BY41).
T2 construct: purchased BPS Bioscience 50008
T2 sequence (Q9BY41 1-377): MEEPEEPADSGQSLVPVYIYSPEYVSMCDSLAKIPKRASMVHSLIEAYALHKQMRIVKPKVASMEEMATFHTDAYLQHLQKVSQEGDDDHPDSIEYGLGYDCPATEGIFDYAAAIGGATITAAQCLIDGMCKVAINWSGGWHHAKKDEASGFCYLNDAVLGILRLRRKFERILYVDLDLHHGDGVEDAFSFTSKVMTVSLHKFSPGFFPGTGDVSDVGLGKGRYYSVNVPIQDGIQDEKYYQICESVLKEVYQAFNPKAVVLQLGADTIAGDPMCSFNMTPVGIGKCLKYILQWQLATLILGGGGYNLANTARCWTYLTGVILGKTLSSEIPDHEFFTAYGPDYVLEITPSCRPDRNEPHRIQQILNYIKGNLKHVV
Kind of data set: HDAC8 inhibitor enzymatic assay, % inhibition at fixed concentration. It counts as biochemical. As to conditions: read-out: %inhibition of HDACs at 10µM of test compound HDAC8; 10 µM compound.

Another data set addresses T3, human HDAC6 (Homo sapiens, UniProt Q9UBN7).
T3 sequence (Q9UBN7 1-1215): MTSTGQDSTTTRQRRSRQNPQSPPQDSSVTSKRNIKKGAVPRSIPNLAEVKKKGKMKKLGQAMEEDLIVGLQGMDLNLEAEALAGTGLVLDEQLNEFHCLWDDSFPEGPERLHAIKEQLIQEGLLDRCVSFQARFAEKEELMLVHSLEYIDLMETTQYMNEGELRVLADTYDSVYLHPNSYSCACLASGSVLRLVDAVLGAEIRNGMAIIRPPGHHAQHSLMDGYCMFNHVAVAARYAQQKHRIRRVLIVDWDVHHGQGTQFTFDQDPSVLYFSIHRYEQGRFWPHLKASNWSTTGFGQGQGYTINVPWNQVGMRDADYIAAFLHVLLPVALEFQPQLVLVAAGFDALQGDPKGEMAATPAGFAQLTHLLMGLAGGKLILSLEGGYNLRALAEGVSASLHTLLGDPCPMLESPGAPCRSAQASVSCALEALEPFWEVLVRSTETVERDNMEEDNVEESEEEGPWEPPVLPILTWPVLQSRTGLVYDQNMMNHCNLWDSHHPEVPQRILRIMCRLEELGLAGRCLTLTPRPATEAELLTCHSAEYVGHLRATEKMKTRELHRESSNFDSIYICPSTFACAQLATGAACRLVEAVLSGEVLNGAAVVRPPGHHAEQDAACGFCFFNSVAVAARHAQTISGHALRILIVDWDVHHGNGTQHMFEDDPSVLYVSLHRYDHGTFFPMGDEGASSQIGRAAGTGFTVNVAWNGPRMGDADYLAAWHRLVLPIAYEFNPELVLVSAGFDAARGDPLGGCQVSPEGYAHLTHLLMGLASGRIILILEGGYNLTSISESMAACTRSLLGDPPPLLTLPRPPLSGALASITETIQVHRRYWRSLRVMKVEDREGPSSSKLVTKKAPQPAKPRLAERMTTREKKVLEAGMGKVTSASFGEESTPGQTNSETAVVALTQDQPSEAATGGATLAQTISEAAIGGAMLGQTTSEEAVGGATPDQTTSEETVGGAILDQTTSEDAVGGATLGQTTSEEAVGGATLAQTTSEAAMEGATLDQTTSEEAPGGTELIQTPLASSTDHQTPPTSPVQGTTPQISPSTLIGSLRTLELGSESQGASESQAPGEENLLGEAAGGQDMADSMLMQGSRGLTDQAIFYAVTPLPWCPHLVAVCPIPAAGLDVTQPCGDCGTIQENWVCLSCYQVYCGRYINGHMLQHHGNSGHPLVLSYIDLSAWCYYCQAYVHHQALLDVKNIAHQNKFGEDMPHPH
Put plainly: HDAC6 inhibitor enzymatic assay, % inhibition at fixed concentration. The conditions noted are these: read-out: %inhibition of HDACs at 10µM of test compound HDAC6.

The target in a further data set is T4, human HDAC1 (Homo sapiens, UniProt Q13547).
T4 construct: purchased BPS Bioscience 50051
T4 sequence (Q13547 whole entry): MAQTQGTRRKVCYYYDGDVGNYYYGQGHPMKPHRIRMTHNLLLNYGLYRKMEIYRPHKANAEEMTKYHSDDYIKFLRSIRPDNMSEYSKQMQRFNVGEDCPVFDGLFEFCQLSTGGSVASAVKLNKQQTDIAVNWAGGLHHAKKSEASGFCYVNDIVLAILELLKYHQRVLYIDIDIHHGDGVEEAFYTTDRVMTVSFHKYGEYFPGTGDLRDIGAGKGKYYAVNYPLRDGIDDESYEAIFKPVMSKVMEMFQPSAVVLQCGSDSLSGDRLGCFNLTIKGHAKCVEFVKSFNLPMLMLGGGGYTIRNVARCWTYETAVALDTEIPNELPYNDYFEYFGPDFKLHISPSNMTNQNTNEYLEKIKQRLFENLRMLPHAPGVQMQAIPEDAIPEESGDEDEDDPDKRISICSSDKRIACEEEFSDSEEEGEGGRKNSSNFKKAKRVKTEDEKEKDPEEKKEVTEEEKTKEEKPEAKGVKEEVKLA
Put plainly: HDAC1 inhibitor enzymatic assay, % inhibition at fixed concentration (BPS Bioscience, fluorogenic). The class given is biochemical. The conditions noted are these: read-out: %inhibition of HDACs at 10µM of test compound HDAC1; 10 µM compound; mean of two replicates.

The subject of data set [1] is CCHE-45 cells (primary choroid plexus carcinoma). Put plainly: Cytotoxicity assay using xCELLigence system. It counts as cell-based. The conditions noted are these: xCELLigence, 96 h exposure; mean of three replicates; read-out: CCHE-45 IC50 (µM)±SEM. Here is the method: Established primary Choroid plexus carcinoma (CCHE-45) were cultured as previously described, in RPMI-1640 (Lonza, BE-12-702F) supplemented with 10% Fetal Bovine Serum (FBS, Gibco, 12483–020) and 100 U/ml penicillin and 100 µg/ml streptomycin (Lonza, DE17-602F). Cells were maintained at 37 °C in a 5% CO2 humidified atmosphere.
Cytotoxicity assay by the xCELLigence system was performed using RTCA xCELLigence DP system (ACEA Biosciences, Inc., San Diego, CA, USA) as per manufacturer’s instructions https://www.aceabio.com/products/rtca-dp/, https://www.aceabio.com/products/rtca-sp[65–68]. In brief, after setting up the instruments and blanking the wells with media, CCHE-45 cells were seeded into the 96 well E-plate (ACEA Biosciences) with a density of 20,000 cells/well. Attachment and growth of the cells were monitored every 1 h. Approximately 24 h after seeding, when the cells were in the log growth phase, the cells were exposed to a range of test compound 10a concentrations (3.125, 6.25, 12.5, 25, 50, 100, 200, 400) µM for 96 h. Controls received either medium alone, or medium + DMSO with a final concentration below of 0.5%. For each concentration, duplicates were tested. Experiments were conducted in three biological repeats. Results were analyzed using the RTCA software (Version 2.0). Data was exported and average IC50 value was analyzed.
• Based on previous pilot experiment, the highest SK114 conc. (100µM)
72hrs, thus this experiment was performed with higher concentration
• Cells were incubated with the drug for 96hrs
• Experiment was done in technical duplicates

Consider `O=C(CCCSc1nc2ccccc2n1CC1CCCCC1)NO` [Compound 10c, 4-((1-(Cyclohexylmethyl)-1H-benzo[d]imidazol-2-yl)thio)-N-hydroxybutanamide], for which the melting point was 149 °C. Also, the inhibition at 10 µM on human HDAC2 turned out to be 8%. Moreover, the inhibition at 10 µM on human HDAC8 was found to be 12%. The inhibition at 10 µM on human HDAC6 is 14%. The inhibition at 10 µM on human HDAC1 turned out to be 9%.
For `O=C(CCCSc1nc2ccccc2n1Cc1ccc(Br)cc1)NO` [Compound 10b, 4-((1–(4-bromobenzyl)-1H-benzo[d]imidazol-2-yl)thio)-N-hydroxybutanamide], the melting point was 153 °C. Moreover, the inhibition at 10 µM at human HDAC2 came to 9%. For the same compound, the inhibition at 10 µM at human HDAC8 stood at 1%. The inhibition at 10 µM at human HDAC6 turned out to be 12%. Moreover, the inhibition at 10 µM at human HDAC1 was 9%.
`O=C(CSc1nc2ccccc2n1CC1CCCCC1)NO` [Compound 6c, 2-((1-(Cyclohexylmethyl)-1H-benzo[d]imidazol-2-yl)thio)-N-hydroxyacetamide] showed a melting point of 160 °C. Besides, the inhibition at 10 µM on human HDAC2 amounted to 7%. In addition, the inhibition at 10 µM on human HDAC8 is 14%. Besides, the inhibition at 10 µM on human HDAC6 amounted to 2%. On human HDAC1, the inhibition at 10 µM was found to be 13%.
On the same counts, the results for `O=C(CSc1nc2ccccc2n1Cc1ccc(Br)cc1)NO` [Compound 6b, 2-((1–(4-bromobenzyl)-1H-benzo[d]imidazol-2-yl)thio)-N-hydroxyacetamide] are 167 °C, 6%, 12%, 6% and 18%.
The compound `O=C(CSc1nc2ccccc2n1Cc1ccccc1)NO` [Compound 6a, 2-((1-benzyl-1H-benzo[d]imidazol-2-yl)thio)-N-hydroxyacetamide] returned a melting point of 97 °C. Moreover, the inhibition at 10 µM at human HDAC2 stood at 5%. For the same compound, the inhibition at 10 µM on human HDAC8 came out at 14%. Moreover, the inhibition at 10 µM on human HDAC6 turned out to be 2%. Besides, the inhibition at 10 µM at human HDAC1 worked out at 6%.
For the compound `O=C(CSc1nc2ccccc2n1CCC1CCCCC1)NO` [Compound 6d, 2-((1–(2-cyclohexylethyl)-1H-benzo[d]imidazol-2-yl)thio)-N-hydroxyacetamide], the melting point amounted to 157 °C. For the same compound, the inhibition at 10 µM at human HDAC2 turned out to be 3%. The inhibition at 10 µM at human HDAC8 was 1%. The inhibition at 10 µM at human HDAC6 worked out at 2%. In addition, the inhibition at 10 µM at human HDAC1 came out at 14%.
As for `O=C(CCCCCCC(=O)Nc1ccc([C@H]2O[C@@H](CSc3nc(-c4ccccc4)c(-c4ccccc4)o3)C[C@@H](c3ccc(CO)cc3)O2)cc1)NO` [Tubacin, reference compound], the IC50 in data set [1] came out at 20 ± 10.2 µM.
`O=C(CCCSc1nc2ccccc2n1CCC1CCCCC1)NO` [Compound 10d, 4-((1–(2-cyclohexylethyl)-1H-benzo[d]imidazol-2-yl)thio)-N-hydroxybutanamide] gave a melting point of 132 °C. On human HDAC2, the inhibition at 10 µM is 8%. In addition, the inhibition at 10 µM on human HDAC8 stood at 10%. Besides, the inhibition at 10 µM at human HDAC6 stood at 35%. Also, the inhibition at 10 µM at human HDAC1 was 11%.
